In US12643887B2, “Heterocyclic derivatives with cardiomyocyte proliferation activity for treatment of heart diseases” (Tongji University, priority 2019, dated 2026) one finds IC50 data, which are given here for 27 compounds.

T1 sequence (P49841 whole entry): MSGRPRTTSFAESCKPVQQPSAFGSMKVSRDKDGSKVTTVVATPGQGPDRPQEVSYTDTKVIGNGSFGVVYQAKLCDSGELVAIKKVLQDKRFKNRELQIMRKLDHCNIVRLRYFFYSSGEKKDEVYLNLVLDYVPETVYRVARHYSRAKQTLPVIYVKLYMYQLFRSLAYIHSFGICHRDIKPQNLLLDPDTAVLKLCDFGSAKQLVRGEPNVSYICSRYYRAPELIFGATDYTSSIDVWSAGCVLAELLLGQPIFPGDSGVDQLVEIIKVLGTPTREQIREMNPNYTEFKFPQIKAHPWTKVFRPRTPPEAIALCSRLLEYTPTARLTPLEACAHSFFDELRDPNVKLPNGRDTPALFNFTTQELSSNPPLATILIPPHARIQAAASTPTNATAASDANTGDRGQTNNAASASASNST

This experiment addresses T1, human GSK3 beta (Homo sapiens, UniProt P49841).
T1 construct: Recombinant full-length human GSK3 beta (expressed in Sf9 insect cells with an N-terminal His tag); His (N); purchased SignalChem G09-10H; host or cells: Sf9 insect cells
Description: GSK3 beta enzyme assay (ADP-Glo). Format: biochemical. The note with it: ATP 25 μM, read-out: GSK3b IC50. The procedure: 1. GSK3 Beta Enzyme Assay
The ability of compounds to inhibit human GSK3 beta kinase activities was determined using a commercially available ADP-Glo™ Kinase Assay kit (Promega, Cat #V9102) according to the manufacturer's protocol. The ADP-Glo™ Kinase Assay is a luminescent ADP detection assay that provides a universal, homogeneous, high-throughput screening method to measure kinase activity by quantifying the amount of ADP produced during a kinase reaction. The ADP-Glo™ Kinase Assay can be used to monitor the activity of virtually any ADP-generating enzymes (e.g., kinases or ATPases).
Recombinant full-length human GSK3 beta (expressed in Sf9 insect cells with an N-terminal His tag) was purchased from SignalChem (Cat #G09-10H). The GSK3 substrate peptide (sequence: […](pS)EDEEE) was purchased from SignalChem (Cat #G50-58). This assay, run in a 384-well plate format, is a generic method for measuring kinase activities using an ADP-Glo Kinase Assay Kit. The basic assay procedure involves two steps: (1) Enzymatic step: inhibitors are incubated with the kinase and then ATP (included in the ADP-Glo Kinase Assay Kit) and the GSK3 substrate peptide are added to start the enzymatic reaction; (2) Detection step: after the kinase reaction, first ADP-Glo™ Reagent is added to terminate the kinase reaction and deplete the remaining ATP. Second, the Kinase Detection Reagent is added to simultaneously convert ADP to ATP and allow the newly synthesized ATP to be measured using a luciferase/luciferin reaction. The light generated is measured using a luminometer.
Briefly, GSK3 beta (4 nM) in the enzymatic buffer solutions (40 mM Tris, pH 7.5, 20 mM MgCl2, 0.1 mg/ml BSA, 50 μM DTT) were mixed with various concentrations of inhibitors (dissolved in 100% DMSO). These solutions were incubated for 30 minutes at 25° C., and subsequently a mixture of substrate peptide and ATP was added with the final peptide and ATP concentrations at 13 μM and 25 μM, respectively. The final reaction mixture of enzyme-substrate-ATP-compound was incubated for 60 minutes at 25° C.
Afterwards ADP-Glo™ Reagent was added and the mixture was incubated at 25° C. for 60 minutes. Then Kinase Detection Reagent was added and the final mixture was incubated at 25° C. for 60 minutes. The luminescence signal of the final solution was measured on an Envision instrument (PerkinElmer). The percent (%) inhibition at each concentration of a compound is calculated relative to the luminescence signal in the Max and Min control wells contained within each assay plate. […] The concentrations and percent inhibition values for a test compound are plotted and the concentration of the compound required to achieve 50% inhibition (IC50) is determined with a four-parameter logistic dose response equation.
(ADP-Glo first removes unused ATP, then detects ADP through luciferase.)
As to `CN(C1=N/C(=C\c2ccc3c(c2)OCO3)C(=O)N1)c1cccnc1` [Example 18, (Z)-5-(benzo[d][1,3]dioxol-5-ylmethylene)-2-(methyl(pyridin-3-yl)amino)-3,5-dihydro-4H-imidazol-4-one], the IC50 is above 10 µM.

In the case of `COc1ccc(NC2=N/C(=C\c3ccc4ncsc4c3)C(=O)N2)cc1` [Example 25, (Z)-5-(benzo[d]thiazol-6-ylmethylene)-2-((4-methoxyphenyl)amino)-3,5-dihydro-4H-imidazol-4-one], the IC50 was above 10 µM.

As to `O=C1NC(Nc2ccccc2)=N/C1=C\c1ccc2scnc2c1` [Example 14, (Z)-5-(benzo[d]thiazol-5-ylmethylene)-2-(phenylamino)-3,5-dihydro-4H-imidazol-4-one], the IC50 is above 10 µM.

For the compound `O=C1NC(N(CC2CC2)c2ccc3ncsc3c2)=N/C1=C\c1ccc2ncsc2c1` [Example 105, (Z)-2-(benzo[d]thiazol-6-yl(cyclopropylmethyl)amino)-5-(benzo[d]thiazol-6-ylmethylene)-3,5-dihydro-4H-imidazol-4-one], the IC50 is above 10 µM.

For `Cn1cnc2cc(NC3=N/C(=C\c4ccc5ncsc5c4)C(=O)N3)ccc21` [Example 61, (Z)-5-(benzo[d]thiazol-6-ylmethylene)-2-((1-methyl-1H-benzo[d]imidazol-5-yl)amino)-3,5-dihydro-4H-imidazol-4-one], the IC50 was in the range of 0.1 to 1 µM.

For the compound `O=C1NC(Nc2ccccc2)=N/C1=C\c1ccc2[nH]ncc2c1` [Example 55, (Z)-5-((1H-indazol-5-yl)methylene)-2-(phenylamino)-3,5-dihydro-4H-imidazol-4-one], the IC50 was 0.1 to 1 µM.

`CN(CCN1CCOCC1)C1=N/C(=C\c2ccc3c(c2)OCO3)C(=O)N1` [Example 20, (Z)-5-(benzo[d][1,3]dioxol-5-ylmethylene)-2-(methyl(2-morpholinoethyl)amino)-3,5-dihydro-4H-imidazol-4-one]: the IC50 fell in the range of 1 to 10 µM.

Turning to `O=C1NC(Nc2ccccc2)=N/C1=C\c1ccc2cn[nH]c2c1` [Example 54, (Z)-5-((1H-indazol-6-yl)methylene)-2-(phenylamino)-3,5-dihydro-4H-imidazol-4-one], the IC50 was above 10 µM.

For `O=C1NC(N(CC2CC2)c2ccccc2)=N/C1=C\c1ccc2c(c1)OCO2` [Example 10, (Z)-5-(benzo[d][1,3]dioxol-5-ylmethylene)-2-((cyclopropylmethyl)(phenyl)amino)-3,5-dihydro-4H-imidazol-4-one], the IC50 is above 10 µM.

`O=C1NC(Nc2ccc3ncsc3c2)=N/C1=C\c1ccc2scnc2c1` [Example 57, (Z)-5-(benzo[d]thiazol-5-ylmethylene)-2-(benzo[d]thiazol-6-ylamino)-3,5-dihydro-4H-imidazol-4-one]: the IC50 is above 10 µM.

`Cn1cnc2ccc(/C=C3\N=C(Nc4ccc5ncsc5c4)NC3=O)cc21` [Example 75, (Z)-2-(benzo[d]thiazol-6-ylamino)-5-((1-methyl-1H-benzo[d]imidazol-6-yl)methylene)-3,5-dihydro-4H-imidazol-4-one]: the IC50 lay within 0.1 to 1 µM.

`NC(=O)CCN(C1=N/C(=C\c2ccc3c(c2)OCO3)C(=O)N1)c1ccccc1` [Example 36, (Z)-3-((4-(benzo[d][1,3]dioxol-5-ylmethylene)-5-oxo-4,5-dihydro-1H-imidazol-2-yl)(phenyl)amino)propanamide]: the IC50 is above 10 µM.

For `O=C1NC(Nc2ccc3ncsc3c2)=N/C1=C\c1ccc2cccnc2c1` [Example 60, (Z)-2-(benzo[d]thiazol-6-ylamino)-5-(quinolin-7-ylmethylene)-3,5-dihydro-4H-imidazol-4-one], the IC50 is above 10 µM.

As for `CN(C1=N/C(=C\c2ccc3ncsc3c2)C(=O)N1)c1ccc([N+](=O)[O-])cc1` [Example 43, (Z)-5-(benzo[d]thiazol-6-ylmethylene)-2-(methyl(4-nitrophenyl)amino)-3,5-dihydro-4H-imidazol-4-one], the IC50 was above 10 µM.

With `O=C1NC(NC23CC4CC(CC(C4)C2)C3)=N/C1=C\c1ccc2scnc2c1` [Example 50, (Z)-2-(adamantan-1-ylamino)-5-(benzo[d]thiazol-5-ylmethylene)-3,5-dihydro-4H-imidazol-4-one], the IC50 was above 10 µM.

Regarding `CN(CCN1CCOCC1)C1=N/C(=C\c2ccc3ncsc3c2)C(=O)N1` [Example 32, (Z)-5-(benzo[d]thiazol-6-ylmethylene)-2-(methyl(2-morpholinoethyl)amino)-3,5-dihydro-4H-imidazol-4-one], the IC50 fell in the range of 1 to 10 µM.

Turning to `Cn1ncc2cc(/C=C3\N=C(Nc4ccc5ncsc5c4)NC3=O)ccc21` [Example 78, (Z)-2-(benzo[d]thiazol-6-ylamino)-5-((1-methyl-1H-indazol-5-yl)methylene)-3,5-dihydro-4H-imidazol-4-one], the IC50 was above 10 µM.

Regarding `O=C1NC(Nc2ccc3ncsc3c2)=NC1Cc1ccc2ncsc2c1` (stereo not drawn) [Example 102, 2-(benzo[d]thiazol-6-ylamino)-5-(benzo[d]thiazol-6-ylmethyl)-3,5-dihydro-4H-imidazol-4-one], the IC50 is above 10 µM.

As to `Cn1ncc2ccc(/C=C3\N=C(Nc4ccccc4)NC3=O)cc21` [Example 79, 5-((1-methyl-1H-indazol-6-yl)methylene)-2-(phenylamino)-3,5-dihydro-4H-imidazol-4-one], the IC50 was above 10 µM.

For `Cn1ncc2cc(/C=C3\N=C(Nc4ccccc4)NC3=O)ccc21` [Example 77, (Z)-5-((1-methyl-1H-indazol-5-yl)methylene)-2-(phenylamino)-3,5-dihydro-4H-imidazol-4-one], the IC50 was above 10 µM.

In the case of `O=C1NC(Nc2ccccc2)=N/C1=C\c1ccc2[nH]ccc2c1` [Example 51, (Z)-5-((1H-indol-5-yl)methylene)-2-(phenylamino)-3,5-dihydro-4H-imidazol-4-one], the IC50 is above 10 µM.

Turning to `CN(C1=N/C(=C\c2ccc3c(c2)OCCO3)C(=O)N1)c1ccccc1` [Example 8, (Z)-5-((2,3-dihydrobenzo[b][1,4]dioxin-6-yl)methylene)-2-(methyl(phenyl)amino)-3,5-dihydro-4H-imidazol-4-one], the IC50 is above 10 µM.

On to `CN(Cc1ccccc1)C1=N/C(=C\c2ccc3ncsc3c2)C(=O)N1` [Example 28, (Z)-5-(benzo[d]thiazol-6-ylmethylene)-2-(benzyl(methyl)amino)-3,5-dihydro-4H-imidazol-4-one], for which the IC50 lay within 1 to 10 µM.

As for `O=C1NC(Nc2ccc3c(c2)OCCO3)=N/C1=C\c1ccc2ncsc2c1` [Example 81, (Z)-5-(benzo[d]thiazol-6-ylmethylene)-2-((2,3-dihydrobenzo[b][1,4]dioxin-6-yl)amino)-3,5-dihydro-4H-imidazol-4-one], the IC50 was in the range of 0.1 to 1 µM.

In the case of `O=C(O)CCN(C1=N/C(=C\c2ccc3c(c2)OCO3)C(=O)N1)c1ccccc1` [Example 27, (Z)-3-((4-(benzo[d][1,3]dioxol-5-ylmethylene)-5-oxo-4,5-dihydro-1H-imidazol-2-yl)(phenyl)amino)propanoic acid], the IC50 was above 10 µM.

For the compound `O=C1NC(Nc2ccccc2)=N/C1=C\c1cncs1` [Example 15, (Z)-2-(phenylamino)-5-(thiazol-5-ylmethylene)-3,5-dihydro-4H-imidazol-4-one], the IC50 is above 10 µM.

Consider `O=C1NC(NCC2CC2)=N/C1=C\c1ccc2ncsc2c1` [Example 34, (Z)-5-(benzo[d]thiazol-6-ylmethylene)-2-((cyclopropylmethyl)amino)-3,5-dihydro-4H-imidazol-4-one], for which the IC50 was in the range of 1 to 10 µM.

As usually defined, the IC50 is the point on the concentration scale where inhibition reaches its midpoint.
